# Assay results as given in patent publication US9062046B2, “Substituted imidazoquinoline derivatives as kinase inhibitors” (Piramal Enterprises Limited, priority 2011, dated 2015).
# Tests used:
# [1] = target: T1, p110α (Homo sapiens, UniProt P42336); experiment: p110α radioactive lipid kinase assay (PI3Kα); assay type: biochemical; details: 25 μM ATP, 2 h at RT, read-out: IC50 in μM (PI3 kinase activity)
# T1 construct: purchased Upstate Millipore
# Method: Protocol for Kinase Assay (PI3Kα)
# p110α Radioactive Lipid Kinase Assay
# The assay was designed as in the reference, Journal of Biomolecular Screening, 2002, Vol. 7, No. 5, 441-450, the disclosure of which is incorporated by reference for the teaching of the assay.
# The p110α biochemical assay was performed using a radioactive assay measuring the incorporation of ^32P into the p110α substrate, phosphatidylinsoitol (PI). For the generation of IC50 curves, the reaction was performed in a 96-well MaxiSorp plates. Plates were pre-coated with 4 μg/well of a 1:1 ratio of phosphatidylinositol (PI: Avanti #840042C) and phosphatidylserine (PS: Avanti #840032C) diluted in CHCl3. Equal amount of p110α (Upstate Millipore) protein was added to each well, containing reaction buffer (50 mM MOPSO pH7.0, 100 mM NaCl, 4 mM MgCl2, 0.1% (w/v) BSA) whereas, for negative control, only reaction buffer was added. Test compounds (referred to by example nos. in the following table 1) dissolved in DMSO were treated at nine-point dose responses. Reactions were initiated by the addition of 25 μM ATP solution containing 50 μCi/ml [γ-^32P]-ATP and incubated at RT for 2 h with gentle shaking. Reactions were finally terminated by the addition of 50 mM EDTA stock solution. Plates were washed 3 times with TBS buffer. The plates were air dried, Microscint 0 (Perkin Elmer) was added to each well and the plates were sealed. The radioactivity incorporated into the immobilized PI substrate was determined with Top Count (Perkin Elmer). Inhibition was calculated using the following equation: % inhibition=(Dcpm−Tcpm)/(Dcpm)×100 • Tcpm=^32P-cpm in presence of test compounds • Dcpm=^32P-cpm in DMSO control (enzyme control deducted) Results: IC50 values of test compounds for PI3 kinase activity is indicated in Table 1.
# [2] = test system: A2780 (ovarian cell line); experiment: Cytotoxicity assay (propidium iodide assay), A2780; assay type: cell-based; details: A2780 cells, 48 h treatment
# In short: (§1)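 A2780 and PC3 cells, 3000/well, were treated with compound for 48 h after 18-24 h attachment. After washing, propidium iodide 7 μg/ml was added, followed by freeze-thaw at −70 °C and a fluorescence read. Viability was taken relative to untreated wells, with IC50 derived from the curves.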
# [3] = test system: PC3 (prostate cell line); experiment: Cytotoxicity assay (propidium iodide assay), PC3; assay type: cell-based; details: PC3 cells, 48 h treatment
# In short: as §1
# T1 sequence (P42336 whole entry, species assumed): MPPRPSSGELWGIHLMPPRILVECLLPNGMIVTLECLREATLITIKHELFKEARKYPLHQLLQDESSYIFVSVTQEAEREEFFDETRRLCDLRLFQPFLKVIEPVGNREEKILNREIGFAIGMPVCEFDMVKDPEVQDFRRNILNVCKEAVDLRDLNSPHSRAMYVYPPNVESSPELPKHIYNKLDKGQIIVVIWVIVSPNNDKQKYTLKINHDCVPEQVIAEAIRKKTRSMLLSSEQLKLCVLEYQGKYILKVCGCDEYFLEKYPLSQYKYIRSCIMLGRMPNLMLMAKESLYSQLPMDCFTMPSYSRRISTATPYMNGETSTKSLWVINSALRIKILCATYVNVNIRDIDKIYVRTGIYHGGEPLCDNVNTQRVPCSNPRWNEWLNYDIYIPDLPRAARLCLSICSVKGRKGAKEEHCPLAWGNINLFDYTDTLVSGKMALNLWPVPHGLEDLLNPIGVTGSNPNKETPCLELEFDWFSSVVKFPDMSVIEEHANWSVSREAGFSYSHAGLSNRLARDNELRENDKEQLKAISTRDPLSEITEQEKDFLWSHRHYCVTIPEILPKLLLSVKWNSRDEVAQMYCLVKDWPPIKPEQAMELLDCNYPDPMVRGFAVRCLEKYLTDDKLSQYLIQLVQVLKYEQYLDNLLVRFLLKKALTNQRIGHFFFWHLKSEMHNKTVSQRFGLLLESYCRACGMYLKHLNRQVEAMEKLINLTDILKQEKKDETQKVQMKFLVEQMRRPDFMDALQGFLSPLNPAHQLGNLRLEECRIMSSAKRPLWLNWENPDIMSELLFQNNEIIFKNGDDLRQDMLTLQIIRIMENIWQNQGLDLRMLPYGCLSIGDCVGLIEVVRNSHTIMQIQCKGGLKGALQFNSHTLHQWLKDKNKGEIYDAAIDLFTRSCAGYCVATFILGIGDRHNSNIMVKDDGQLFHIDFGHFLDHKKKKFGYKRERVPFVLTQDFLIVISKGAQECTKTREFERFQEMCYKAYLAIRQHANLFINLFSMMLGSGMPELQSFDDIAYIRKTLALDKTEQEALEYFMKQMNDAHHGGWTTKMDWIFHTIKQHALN
# T1 sequence (P27986 whole entry partner, species assumed): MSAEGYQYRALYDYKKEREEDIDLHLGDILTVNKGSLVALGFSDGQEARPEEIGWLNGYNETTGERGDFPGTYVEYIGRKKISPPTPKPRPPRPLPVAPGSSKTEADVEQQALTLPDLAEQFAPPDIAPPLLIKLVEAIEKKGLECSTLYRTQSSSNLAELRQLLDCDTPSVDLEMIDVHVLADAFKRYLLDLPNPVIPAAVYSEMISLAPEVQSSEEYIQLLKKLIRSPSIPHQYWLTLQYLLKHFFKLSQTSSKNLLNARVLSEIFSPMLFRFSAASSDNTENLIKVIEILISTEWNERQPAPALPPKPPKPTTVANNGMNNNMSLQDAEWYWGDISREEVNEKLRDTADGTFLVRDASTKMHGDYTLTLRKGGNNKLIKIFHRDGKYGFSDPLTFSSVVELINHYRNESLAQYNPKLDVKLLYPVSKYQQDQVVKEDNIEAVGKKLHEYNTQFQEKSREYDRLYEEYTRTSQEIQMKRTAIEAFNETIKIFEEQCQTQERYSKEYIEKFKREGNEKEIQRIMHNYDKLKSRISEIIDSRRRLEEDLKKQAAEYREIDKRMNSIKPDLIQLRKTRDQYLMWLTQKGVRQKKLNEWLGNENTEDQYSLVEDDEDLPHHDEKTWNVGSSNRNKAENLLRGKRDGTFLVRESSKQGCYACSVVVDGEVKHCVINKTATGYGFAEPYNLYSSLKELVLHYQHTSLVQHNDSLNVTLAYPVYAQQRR
Compound,IC50 [1],IC50 ([2]; Homo sapiens),"IC50 ([3]; Homo sapiens, PC-3)","inhibition at 1 µM ([2]; Homo sapiens, 1 μM)","inhibition at 1 µM ([3]; Homo sapiens, PC-3, 1 μM)","% Inhibition at 1 μM, A2780 ([2]; 1 μM)","% Inhibition at 1 μM, PC3 ([3]; 1 μM)"
"Cn1c(=NC#N)n(-c2ccc(C(C)(C)C#N)nc2)c2c3cc(-c4cnc(N)c(C(F)(F)F)c4)ccc3ncc21 [Example 5, N-(8-(6-amino-5-(trifluoromethyl)pyridin-3-yl)-1-(6-(2-cyanopropan-2-yl)pyridin-3-yl)-3-methyl-1H-imidazo[4,5-c]quinolin-2(3H)-ylidene)cyanamide]",≤ 0.01 µM,≤ 0.5 µM,≤ 0.5 µM,–,–,–,–
Cn1c(=NC#N)n(-c2ccc(C(C)(C)C#N)nc2)c2c3cc(-c4cncc(C(F)(F)F)c4)ccc3ncc21 [Example 70],≤ 0.01 µM,≤ 0.5 µM,≤ 0.5 µM,–,–,–,–
"Cn1c(=NC#N)n(-c2ccc(C(C)(C)C#N)nc2)c2c3cc(-c4ccc5[nH]ccc5c4)ccc3ncc21 [Example 73, N-(1-(6-(2-cyanopropan-2-yl)pyridin-3-yl)-8-(1H-indol-5-yl)-3-methyl-1H-imidazo[4,5-c]quinolin-2(3H)-ylidene)cyanamide]",≤ 0.01 µM,≤ 0.5 µM,≤ 0.5 µM,–,–,–,–
"Cn1c(=NC#N)n(-c2ccc(C(C)(C)C#N)nc2)c2c3cc(-c4cnc(N)nc4)ccc3ncc21 [Example 75, N-(8-(2-aminopyrimidin-5-yl)-1-(6-(2-cyanopropan-2-yl)pyridin-3-yl)-3-methyl-1H-imidazo[4,5-c]quinolin-2(3H)-ylidene)cyanamide]",0.01 to 1 µM,≤ 0.5 µM,≤ 0.5 µM,–,–,–,–
"Cn1c(=NC#N)n(-c2ccc(C(C)(C)C#N)nc2)c2c3cc(-c4ccc(N5CCCCC5)nc4)ccc3ncc21 [Example 76, N-(1-(6-(2-cyanopropan-2-yl)pyridin-3-yl)-3-methyl-8-(6-(piperidin-1-yl)pyridin-3-yl)-1H-imidazo[4,5-c]quinolin-2(3H)-ylidene)cyanamide]",0.01 to 1 µM,≤ 0.5 µM,0.5 to 2 µM,–,–,–,–
"Cn1c(=NC#N)n(-c2ccc(C(C)(C)C#N)nc2)c2c3cc(-c4ccc5cn[nH]c5c4)ccc3ncc21 [Example 77, N-(1-(6-(2-cyanopropan-2-yl)pyridin-3-yl)-8-(1H-indazol-6-yl)-3-methyl-1H-imidazo[4,5-c]quinolin-2(3H)-ylidene)cyanamide]",0.01 to 1 µM,≤ 0.5 µM,≤ 0.5 µM,–,–,–,–
"Cc1cc(-c2ccc3ncc4c(c3c2)n(-c2ccc(C(C)(C)C#N)nc2)c(=NC#N)n4C)cnc1F [Example 78, N-(1-(6-(2-cyanopropan-2-yl)pyridin-3-yl)-8-(6-fluoro-5-methylpyridin-3-yl)-3-methyl-1H-imidazo[4,5-c]quinolin-2(3H)-ylidene)cyanamide]",0.01 to 1 µM,≤ 0.5 µM,≤ 0.5 µM,–,–,–,–
"Cn1c(=NC#N)n(-c2ccc(C(C)(C)C#N)nc2)c2c3cc(-c4ccc5cc[nH]c5c4)ccc3ncc21 [Example 79, N-(1-(6-(2-cyanopropan-2-yl)pyridin-3-yl)-8-(1H-indol-6-yl)-3-methyl-1H-imidazo[4,5-c]quinolin-2(3H)-ylidene)cyanamide]",≤ 0.01 µM,≤ 0.5 µM,≤ 0.5 µM,–,–,–,–
"COc1ncc(-c2ccc3ncc4c(c3c2)n(-c2ccc(C(C)(C)C#N)nc2)c(=NC#N)n4C)cc1N [Example 95, N-(8-(5-amino-6-methoxypyridin-3-yl)-1-(6-(2-cyanopropan-2-yl)pyridin-3-yl)-3-methyl-1H-imidazo[4,5-c]quinolin-2(3H)-ylidene)cyanamide]",0.01 to 1 µM,≤ 0.5 µM,≤ 0.5 µM,–,–,–,–
"COc1ncc(-c2ccc3ncc4c(c3c2)n(-c2ccc(C(C)(C)C#N)nc2)c(=NC#N)n4C)cc1NS(=O)(=O)c1ccccc1 [Example 125, N-(5-(2-(cyanoimino)-1-(6-(2-cyanopropan-2-yl)pyridin-3-yl)-3-methyl-2,3-dihydro-1H-imidazo[4,5-c]quinolin-8-yl)-2-methoxypyridin-3-yl)benzenesulfonamide]",≤ 0.01 µM,≤ 0.5 µM,≤ 0.5 µM,–,–,–,–
"CCCC(CCC)C(=O)Nc1ncc(-c2ccc3ncc4c(c3c2)n(-c2ccc(C(C)(C)C#N)nc2)c(=NC#N)n4C)cc1C(F)(F)F [Example 136, N-(5-(2-(cyanoimino)-1-(6-(2-cyanopropan-2-yl)pyridin-3-yl)-3-methyl-2,3-dihydro-1H-imidazo[4,5-c]quinolin-8-yl)-3-(trifluoromethyl)pyridin-2-yl)-2-propylpentanamide]",–,–,–,≥ 70%,30 to 70%,–,–
"COC(=O)c1cc(-c2ccc3ncc4c(c3c2)n(-c2ccc(C(C)(C)C#N)nc2)c(=NC#N)n4C)cnc1N [Example 137, Methyl 2-amino-5-(2-(cyanoimino)-1-(6-(2-cyanopropan-2-yl)pyridin-3-yl)-3-methyl-2,3-dihydro-1H-imidazo[4,5-c]quinolin-8-yl)nicotinate]",–,≤ 0.5 µM,≤ 0.5 µM,–,–,–,–
"Cn1c(=NC#N)n(-c2ccc(C(C)(C)C#N)nc2)c2c3cc(-c4cnc(NCc5ccccc5)c(C(F)(F)F)c4)ccc3ncc21 [Example 138, N-(8-(6-(benzylamino)-5-(trifluoromethyl)pyridin-3-yl)-1-(6-(2-cyanopropan-2-yl)pyridin-3-yl)-3-methyl-1H-imidazo[4,5-c]quinolin-2(3H)-ylidene)cyanamide]",–,≤ 0.5 µM,≤ 0.5 µM,–,–,–,–
"N-(1-(6-methoxypyridin-3-yl)-3-methyl-8-(4-(trifluoromethyl)phenyl)-1H-imidazo[4,5-c]quinolin-2(3H)-ylidene)cyanamide [Example 43]",–,–,–,–,–,+ (<30%),+ (<30%)
